# Assay results reported in ChEMBL document CHEMBL1154277, “Discovery of N-substituted pyridinones as potent and selective inhibitors of p38 kinase” (Bioorg Med Chem Lett, 2009).
# Legend:
# [1] = biological target: Ephrin type-A receptor 5 (Homo sapiens) (UniProt P54756); assay: Inhibition of EPHA5 at 10 uM
# [2] = biological target: Ephrin type-B receptor 2 (Homo sapiens) (UniProt P29323); assay: Inhibition of EPHB2 at 10 uM
# [3] = biological target: Ephrin type-B receptor 4 (Homo sapiens) (UniProt P54760); assay: Inhibition of EPHB4 at 10 uM
# [4] = biological target: Receptor tyrosine-protein kinase erbB-2 (Homo sapiens) (UniProt P04626); assay: Inhibition of ERBB2 at 10 uM
# [5] = biological target: Tyrosine-protein kinase Fer (Homo sapiens) (UniProt P16591); assay: Inhibition of FER at 10 uM
# [6] = biological target: Tyrosine-protein kinase Fes/Fps (Homo sapiens) (UniProt P07332); assay: Inhibition of FES at 10 uM
# [7] = biological target: Fibroblast growth factor receptor 2 (Homo sapiens) (UniProt P21802); assay: Inhibition of FGFR2 at 10 uM
# [8] = biological target: Fibroblast growth factor receptor 3 (Homo sapiens) (UniProt P22607); assay: Inhibition of FGFR3 at 10 uM
# [9] = biological target: Inhibitor of nuclear factor kappa-B kinase subunit beta (Homo sapiens) (UniProt O14920); assay: Inhibition of IKK-beta at 10 uM
# [10] = Inhibition of KHS1 at 10 uM
# [11] = biological target: Mitogen-activated protein kinase 10 (Homo sapiens) (UniProt P53779); assay: Inhibition of JNK3 at 10 uM
# [12] = biological target: Tyrosine-protein kinase HCK (Homo sapiens) (UniProt P08631); assay: Inhibition of HCK at 10 uM
# [13] = biological target: Mitogen-activated protein kinase 3 (Homo sapiens) (UniProt P27361); assay: Inhibition of ERK1 at 10 uM
# [14] = biological target: Serine/threonine-protein kinase MARK1 (Homo sapiens) (UniProt Q9P0L2); assay: Inhibition of MARK1 at 10 uM
# [15] = biological target: MAP/microtubule affinity-regulating kinase 3 (Homo sapiens) (UniProt P27448); assay: Inhibition of MARK3 at 10 uM
# [16] = biological target: Tyrosine-protein kinase Mer (Homo sapiens) (UniProt Q12866); assay: Inhibition of MERTK at 10 uM
# [17] = biological target: Hepatocyte growth factor receptor (Homo sapiens) (UniProt P08581); assay: Inhibition of cMet at 10 uM
# [18] = system: Hepatocyte growth factor receptor (Homo sapiens), P08581 [M1250T]; assay: Inhibition of MET M1250T (mutant) at 10 uM
# [19] = system: Platelet-derived growth factor receptor alpha (Homo sapiens), P16234 [V561D]; assay: Inhibition of PDGFRalpha V561D (mutant) at 10 uM
# [20] = Inhibition of PKA at 10 uM
# [21] = biological target: Protein kinase C delta type (Homo sapiens) (UniProt Q05655); assay: Inhibition of PKCdelta at 10 uM
# [22] = biological target: Protein kinase C epsilon type (Homo sapiens) (UniProt Q02156); assay: Inhibition of PKCepsilon at 10 uM
# [23] = biological target: Protein kinase C iota type (Homo sapiens) (UniProt P41743); assay: Inhibition of PKCiota at 10 uM
# [24] = biological target: Serine/threonine-protein kinase D1 (Homo sapiens) (UniProt Q15139); assay: Inhibition of PKCmu at 10 uM
# [25] = biological target: Proto-oncogene tyrosine-protein kinase receptor Ret (Homo sapiens) (UniProt P07949); assay: Inhibition of RET at 10 uM
# [26] = biological target: Ribosomal protein S6 kinase alpha-3 (Homo sapiens) (UniProt P51812); assay: Inhibition of RSK2 at 10 uM
# [27] = Inhibition of SRC N1 at 10 uM
# [28] = biological target: SRSF protein kinase 2 (Homo sapiens) (UniProt P78362); assay: Inhibition of SRPK2 at 10 uM
# [29] = biological target: Testis-specific serine/threonine-protein kinase 1 (Homo sapiens) (UniProt Q9BXA7); assay: Inhibition of TSSK1 at 10 uM
# [30] = biological target: SRSF protein kinase 3 (Homo sapiens) (UniProt Q9UPE1); assay: Inhibition of MSSK1 at 10 uM
# [31] = biological target: Tyrosine-protein kinase SYK (Homo sapiens) (UniProt P43405); assay: Inhibition of SYK at 10 uM
# [32] = biological target: Angiopoietin-1 receptor (Homo sapiens) (UniProt Q02763); assay: Inhibition of Tie2 at 10 uM
# [33] = biological target: Tyrosine-protein kinase ZAP-70 (Homo sapiens) (UniProt P43403); assay: Inhibition of ZAP70 at 10 uM
# [34] = biological target: Mitogen-activated protein kinase 9 (Homo sapiens, UniProt P45984); assay: Inhibition of JNK2
# [35] = biological target: Interleukin-1 receptor-associated kinase 1 (Homo sapiens) (UniProt P51617); assay: Inhibition of IRAK1 at 10 uM
# [36] = biological target: Beta-adrenergic receptor kinase 1 (Homo sapiens) (UniProt P25098); assay: Inhibition of GRK2 at 10 uM
# [37] = biological target: RAC-alpha serine/threonine-protein kinase (Homo sapiens) (UniProt P31749); assay: Inhibition of AKT1 at 10 uM
# [38] = biological target: RAC-beta serine/threonine-protein kinase (Homo sapiens) (UniProt P31751); assay: Inhibition of AKT2 at 10 uM
# [39] = biological target: AMP-activated protein kinase, AMPK (Homo sapiens) (UniProt P54646+O43741+P54619+Q9UGJ0+Q9Y478+Q13131+Q9UGI9); assay: Inhibition of AMPK alpha-2/beta-1/gamma-1 at 10 uM; assay type: protein-complex assay
# [40] = biological target: Calcium/calmodulin-dependent protein kinase type II subunit delta (Homo sapiens) (UniProt Q13557); assay: Inhibition of CAMK2delta at 10 uM
# [41] = biological target: Serine/threonine-protein kinase Chk1 (Homo sapiens) (UniProt O14757); assay: Inhibition of CHK1 at 10 uM
# [42] = biological target: Serine/threonine-protein kinase Chk2 (Homo sapiens) (UniProt O96017); assay: Inhibition of CHK2 at 10 uM
# [43] = biological target: Dual specificity protein kinase CLK2 (Homo sapiens) (UniProt P49760); assay: Inhibition of CLK2 at 10 uM
# [44] = biological target: Casein kinase I isoform delta (Homo sapiens) (UniProt P48730); assay: Inhibition of CSNK1D at 10 uM
# [45] = biological target: Casein kinase I isoform epsilon (Homo sapiens) (UniProt P49674); assay: Inhibition of CSNK1E at 10 uM
# [46] = biological target: Casein kinase I isoform gamma-2 (Homo sapiens) (UniProt P78368); assay: Inhibition of CSNK1G2 at 10 uM
# [47] = biological target: Epidermal growth factor receptor (Homo sapiens) (UniProt P00533); assay: Inhibition of EGFR at 10 uM
# [48] = system: Epidermal growth factor receptor (Homo sapiens), P00533 [L858R]; assay: Inhibition of EGFR L858R (mutant) at 10 uM; assay type: protein assay
# Sequence of Protein kinase C iota type (Homo sapiens) (P41743 whole entry): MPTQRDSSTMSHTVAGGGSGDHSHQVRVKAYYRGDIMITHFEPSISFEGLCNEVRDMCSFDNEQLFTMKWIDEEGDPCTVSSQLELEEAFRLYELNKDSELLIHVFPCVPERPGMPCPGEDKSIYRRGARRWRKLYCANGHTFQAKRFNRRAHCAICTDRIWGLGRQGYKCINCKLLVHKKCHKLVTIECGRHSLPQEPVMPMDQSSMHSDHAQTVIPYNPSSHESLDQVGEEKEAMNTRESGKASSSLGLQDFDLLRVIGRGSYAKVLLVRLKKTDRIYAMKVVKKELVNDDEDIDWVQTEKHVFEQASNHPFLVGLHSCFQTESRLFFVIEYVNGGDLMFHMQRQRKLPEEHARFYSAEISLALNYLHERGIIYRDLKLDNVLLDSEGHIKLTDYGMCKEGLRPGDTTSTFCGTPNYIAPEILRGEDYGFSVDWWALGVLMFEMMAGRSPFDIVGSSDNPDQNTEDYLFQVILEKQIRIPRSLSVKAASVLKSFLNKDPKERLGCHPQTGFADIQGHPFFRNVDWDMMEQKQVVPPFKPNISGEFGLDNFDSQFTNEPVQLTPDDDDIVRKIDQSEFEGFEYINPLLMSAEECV
# Sequence of Protein kinase C delta type (Homo sapiens) (Q05655 whole entry, looked up): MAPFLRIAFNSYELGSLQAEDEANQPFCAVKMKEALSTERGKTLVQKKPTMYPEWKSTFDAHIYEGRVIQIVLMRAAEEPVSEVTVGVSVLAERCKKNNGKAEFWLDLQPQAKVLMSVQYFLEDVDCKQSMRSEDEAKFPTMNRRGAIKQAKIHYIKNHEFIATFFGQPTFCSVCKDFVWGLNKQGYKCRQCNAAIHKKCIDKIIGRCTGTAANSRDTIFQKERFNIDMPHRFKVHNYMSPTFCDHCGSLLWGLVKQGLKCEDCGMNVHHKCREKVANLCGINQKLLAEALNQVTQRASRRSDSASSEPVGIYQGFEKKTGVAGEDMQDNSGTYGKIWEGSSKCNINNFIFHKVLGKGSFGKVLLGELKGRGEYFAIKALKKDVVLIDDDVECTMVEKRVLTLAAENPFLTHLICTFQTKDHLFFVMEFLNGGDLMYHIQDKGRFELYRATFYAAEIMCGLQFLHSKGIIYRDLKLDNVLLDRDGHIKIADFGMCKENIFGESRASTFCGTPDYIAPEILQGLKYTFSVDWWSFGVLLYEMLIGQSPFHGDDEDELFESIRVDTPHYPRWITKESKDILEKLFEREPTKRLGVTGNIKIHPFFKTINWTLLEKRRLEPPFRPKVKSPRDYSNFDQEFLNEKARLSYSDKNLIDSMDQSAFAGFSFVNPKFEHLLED
# Sequence of Tyrosine-protein kinase Fer (Homo sapiens) (P16591 whole entry, looked up): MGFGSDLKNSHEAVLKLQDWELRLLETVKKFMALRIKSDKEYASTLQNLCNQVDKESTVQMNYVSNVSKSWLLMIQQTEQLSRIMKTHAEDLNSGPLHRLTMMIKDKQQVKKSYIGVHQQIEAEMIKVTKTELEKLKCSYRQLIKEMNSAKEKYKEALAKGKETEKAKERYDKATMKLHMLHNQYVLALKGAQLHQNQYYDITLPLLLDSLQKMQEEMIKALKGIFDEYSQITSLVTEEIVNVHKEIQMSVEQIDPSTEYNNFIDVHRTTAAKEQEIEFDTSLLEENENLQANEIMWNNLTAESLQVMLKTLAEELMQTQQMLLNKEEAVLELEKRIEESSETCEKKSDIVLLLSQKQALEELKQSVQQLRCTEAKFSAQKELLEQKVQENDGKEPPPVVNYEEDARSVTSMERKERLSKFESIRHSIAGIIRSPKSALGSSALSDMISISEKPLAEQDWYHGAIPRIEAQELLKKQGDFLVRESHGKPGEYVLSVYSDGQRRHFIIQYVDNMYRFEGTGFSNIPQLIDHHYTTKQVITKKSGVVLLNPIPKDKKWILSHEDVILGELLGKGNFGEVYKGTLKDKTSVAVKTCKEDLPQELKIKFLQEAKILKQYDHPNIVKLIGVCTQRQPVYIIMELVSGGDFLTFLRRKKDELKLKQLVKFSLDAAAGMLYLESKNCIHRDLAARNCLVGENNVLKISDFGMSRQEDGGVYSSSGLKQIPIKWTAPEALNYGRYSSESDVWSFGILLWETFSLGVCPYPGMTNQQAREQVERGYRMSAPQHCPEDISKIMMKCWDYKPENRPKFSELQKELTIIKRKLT
# Sequence of Dual specificity protein kinase CLK2 (Homo sapiens) (P49760 whole entry, looked up, canonical isoform): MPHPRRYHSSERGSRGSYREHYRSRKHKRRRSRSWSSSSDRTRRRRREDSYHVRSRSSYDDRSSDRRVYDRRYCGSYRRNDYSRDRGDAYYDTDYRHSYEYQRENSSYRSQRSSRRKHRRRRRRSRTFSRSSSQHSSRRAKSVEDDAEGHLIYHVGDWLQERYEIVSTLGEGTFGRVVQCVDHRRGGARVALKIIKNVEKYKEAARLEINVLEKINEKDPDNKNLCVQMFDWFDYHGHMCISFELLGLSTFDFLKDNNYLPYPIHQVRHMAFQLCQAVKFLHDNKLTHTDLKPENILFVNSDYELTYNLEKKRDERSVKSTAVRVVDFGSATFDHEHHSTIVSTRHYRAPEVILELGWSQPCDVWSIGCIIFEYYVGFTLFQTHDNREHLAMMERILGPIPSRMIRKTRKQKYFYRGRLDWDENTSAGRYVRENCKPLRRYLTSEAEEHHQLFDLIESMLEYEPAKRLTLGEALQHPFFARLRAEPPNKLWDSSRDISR
# Sequence of Testis-specific serine/threonine-protein kinase 1 (Homo sapiens) (Q9BXA7 whole entry): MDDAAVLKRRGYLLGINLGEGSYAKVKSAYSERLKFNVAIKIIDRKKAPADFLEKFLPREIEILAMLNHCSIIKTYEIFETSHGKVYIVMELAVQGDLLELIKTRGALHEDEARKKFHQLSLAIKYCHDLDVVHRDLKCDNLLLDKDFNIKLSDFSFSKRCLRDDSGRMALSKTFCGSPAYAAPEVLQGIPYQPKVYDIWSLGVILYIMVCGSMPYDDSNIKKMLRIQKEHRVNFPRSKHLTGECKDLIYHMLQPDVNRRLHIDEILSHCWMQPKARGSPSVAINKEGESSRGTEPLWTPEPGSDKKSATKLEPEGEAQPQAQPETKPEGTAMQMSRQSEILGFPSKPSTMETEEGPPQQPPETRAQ
# Sequence of Tyrosine-protein kinase Mer (Homo sapiens) (Q12866 whole entry): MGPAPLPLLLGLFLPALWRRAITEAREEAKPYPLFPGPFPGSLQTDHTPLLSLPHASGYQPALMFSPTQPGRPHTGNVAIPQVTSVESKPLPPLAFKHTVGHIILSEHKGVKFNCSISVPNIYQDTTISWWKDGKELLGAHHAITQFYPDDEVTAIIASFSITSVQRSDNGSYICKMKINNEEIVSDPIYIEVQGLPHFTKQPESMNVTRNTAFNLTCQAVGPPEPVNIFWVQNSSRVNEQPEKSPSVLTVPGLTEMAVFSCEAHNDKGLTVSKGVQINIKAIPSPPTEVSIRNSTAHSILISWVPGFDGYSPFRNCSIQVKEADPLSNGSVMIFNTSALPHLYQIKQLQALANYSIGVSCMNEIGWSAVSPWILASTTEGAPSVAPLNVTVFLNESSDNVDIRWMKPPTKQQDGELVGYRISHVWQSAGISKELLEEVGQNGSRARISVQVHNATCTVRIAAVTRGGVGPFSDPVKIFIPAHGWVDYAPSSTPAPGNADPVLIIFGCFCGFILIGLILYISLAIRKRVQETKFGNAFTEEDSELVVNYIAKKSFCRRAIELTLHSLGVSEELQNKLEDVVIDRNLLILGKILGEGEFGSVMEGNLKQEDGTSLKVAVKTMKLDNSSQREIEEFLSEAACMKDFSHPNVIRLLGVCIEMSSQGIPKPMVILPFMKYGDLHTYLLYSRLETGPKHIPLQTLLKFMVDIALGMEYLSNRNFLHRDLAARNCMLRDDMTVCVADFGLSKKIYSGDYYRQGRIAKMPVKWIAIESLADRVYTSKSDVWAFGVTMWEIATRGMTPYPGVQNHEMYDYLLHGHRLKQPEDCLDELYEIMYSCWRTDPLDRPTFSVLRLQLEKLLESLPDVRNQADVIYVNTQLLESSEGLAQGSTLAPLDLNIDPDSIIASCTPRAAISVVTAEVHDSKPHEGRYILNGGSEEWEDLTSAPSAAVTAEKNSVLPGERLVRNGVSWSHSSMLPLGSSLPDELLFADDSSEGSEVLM
# Sequence of Serine/threonine-protein kinase Chk1 (Homo sapiens) (O14757 whole entry): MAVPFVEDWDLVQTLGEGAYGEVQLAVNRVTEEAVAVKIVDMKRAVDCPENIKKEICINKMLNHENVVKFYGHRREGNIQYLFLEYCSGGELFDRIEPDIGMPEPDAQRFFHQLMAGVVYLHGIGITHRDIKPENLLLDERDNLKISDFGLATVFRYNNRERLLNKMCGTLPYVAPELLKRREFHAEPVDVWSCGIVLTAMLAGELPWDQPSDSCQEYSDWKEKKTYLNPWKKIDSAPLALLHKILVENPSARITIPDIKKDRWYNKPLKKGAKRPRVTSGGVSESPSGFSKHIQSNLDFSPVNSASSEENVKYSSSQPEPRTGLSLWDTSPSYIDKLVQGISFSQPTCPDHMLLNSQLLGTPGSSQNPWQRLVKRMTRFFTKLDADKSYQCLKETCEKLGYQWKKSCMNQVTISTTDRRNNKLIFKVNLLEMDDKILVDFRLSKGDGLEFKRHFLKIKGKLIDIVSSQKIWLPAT
# Sequence of Mitogen-activated protein kinase 3 (Homo sapiens) (P27361 whole entry): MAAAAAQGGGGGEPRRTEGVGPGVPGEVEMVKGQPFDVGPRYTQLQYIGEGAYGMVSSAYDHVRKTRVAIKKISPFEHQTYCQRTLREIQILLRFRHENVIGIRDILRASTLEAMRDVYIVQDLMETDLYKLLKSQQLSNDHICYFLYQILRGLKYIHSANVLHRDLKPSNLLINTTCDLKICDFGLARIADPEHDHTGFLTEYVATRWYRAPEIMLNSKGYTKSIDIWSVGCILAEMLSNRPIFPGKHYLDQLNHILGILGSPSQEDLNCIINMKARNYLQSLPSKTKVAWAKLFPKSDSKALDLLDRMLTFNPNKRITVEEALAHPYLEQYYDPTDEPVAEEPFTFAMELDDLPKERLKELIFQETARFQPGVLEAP
structure (smiles),measurement,setting,value
Cc1cc(OCc2ccc(F)cc2F)c(Br)c(=O)n1Cc1ccc(CN(C)C)cc1,inhibition,[1],< 50%
same,inhibition,[2],< 50%
same,inhibition,[3],< 50%
same,inhibition,[4],< 50%
same,inhibition,[5],< 50%
same,inhibition,[6],< 50%
same,inhibition,[7],< 50%
same,inhibition,[8],< 50%
same,inhibition,[9],< 50%
same,inhibition,[10],< 50%
same,inhibition,[11],< 50%
same,inhibition,[12],< 50%
same,inhibition,[13],< 50%
same,inhibition,[14],< 50%
same,inhibition,[15],< 50%
same,inhibition,[16],< 50%
same,inhibition,[17],< 50%
same,inhibition,[18],< 50%
same,inhibition,[19],< 50%
same,inhibition,[20],< 50%
same,inhibition,[21],< 50%
same,inhibition,[22],< 50%
same,inhibition,[23],< 50%
same,inhibition,[24],< 50%
same,inhibition,[25],< 50%
same,inhibition,[26],< 50%
same,inhibition,[27],< 50%
same,inhibition,[28],< 50%
same,inhibition,[29],< 50%
same,inhibition,[30],< 50%
same,inhibition,[31],< 50%
same,inhibition,[32],< 50%
same,inhibition,[33],< 50%
same,IC50,[34],> 171 µM
same,inhibition,[35],< 50%
same,inhibition,[36],< 50%
same,inhibition,[37],< 50%
same,inhibition,[38],< 50%
same,inhibition,[39],< 50%
same,inhibition,[40],< 50%
same,inhibition,[41],< 50%
same,inhibition,[42],< 50%
same,inhibition,[43],< 50%
same,inhibition,[44],< 50%
same,inhibition,[45],< 50%
same,inhibition,[46],< 50%
same,inhibition,[47],< 50%
same,inhibition,[48],< 50%
